Assay results published in the supplement of paper PMC10307832.

Tests used:
Test in all cases: relative viability (nuclei count vs DMSO), 5 days (fraction); higher = more cells survive
Dovitinib + Pictilisib = compound: CN1CCN(c2ccc3nc(-c4c(N)c5c(F)cccc5[nH]c4=O)[nH]c3c2)CC1 [Dovitinib] + CS(=O)(=O)N1CCN(Cc2cc3nc(-c4cccc5[nH]ncc45)nc(N4CCOCC4)c3s2)CC1 [Pictilisib] (partner 1 µM)
How it was run: (§1)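 A single step with final 0.05% Triton X-100, 1% formaldehyde and 1 ug/ml Hoechst fixed the cells and stained nuclei 5 days after treatment. Lung cancer cell lines in 1536-well plates had been treated by pin tool the day after seeding with one drug alone or a fixed anchor-drug dose plus five library-drug doses (not always all listed) in √10 steps, and nuclei were counted on 4× images. Relative viability is the ratio of nuclei in treated wells to nuclei in vehicle wells, taken as the median of duplicate plates.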

Dovitinib + Bortezomib = compound: CN1CCN(c2ccc3nc(-c4c(N)c5c(F)cccc5[nH]c4=O)[nH]c3c2)CC1 [Dovitinib] + CC(C)C[C@H](NC(=O)[C@H](Cc1ccccc1)NC(=O)c1cnccn1)B(O)O [Bortezomib] (partner 0.002 µM)
How it was run: as §1

Dovitinib + Foretinib = compound: CN1CCN(c2ccc3nc(-c4c(N)c5c(F)cccc5[nH]c4=O)[nH]c3c2)CC1 [Dovitinib] + COc1cc2c(Oc3ccc(NC(=O)C4(C(=O)Nc5ccc(F)cc5)CC4)cc3F)ccnc2cc1OCCCN1CCOCC1 [Foretinib] (partner 0.25 µM)
How it was run: as §1

Dovitinib + Palbociclib = compound: CN1CCN(c2ccc3nc(-c4c(N)c5c(F)cccc5[nH]c4=O)[nH]c3c2)CC1 [Dovitinib] + CC(=O)c1c(C)c2cnc(Nc3ccc(N4CCNCC4)cn3)nc2n(C2CCCC2)c1=O [Palbociclib] (partner 0.5 µM)
How it was run: as §1

Cell Line | relative viability (Dovitinib + Pictilisib; first compound 0.02 µM) | relative viability (Dovitinib + Pictilisib; first compound 0.06325 µM) | relative viability (Dovitinib + Pictilisib; first compound 0.2 µM) | relative viability (Dovitinib + Pictilisib; first compound 0.6325 µM) | relative viability (Dovitinib + Pictilisib; first compound 2 µM) | relative viability (Dovitinib + Bortezomib; first compound 0.02 µM) | relative viability (Dovitinib + Bortezomib; first compound 0.06325 µM) | relative viability (Dovitinib + Bortezomib; first compound 0.2 µM) | relative viability (Dovitinib + Bortezomib; first compound 0.6325 µM) | relative viability (Dovitinib + Bortezomib; first compound 2 µM) | relative viability (Dovitinib + Foretinib; first compound 0.02 µM) | relative viability (Dovitinib + Foretinib; first compound 0.06325 µM) | relative viability (Dovitinib + Foretinib; first compound 0.2 µM) | relative viability (Dovitinib + Foretinib; first compound 0.6325 µM) | relative viability (Dovitinib + Foretinib; first compound 2 µM) | relative viability (Dovitinib + Palbociclib; first compound 0.02 µM) | relative viability (Dovitinib + Palbociclib; first compound 0.06325 µM) | relative viability (Dovitinib + Palbociclib; first compound 0.2 µM) | relative viability (Dovitinib + Palbociclib; first compound 0.6325 µM) | relative viability (Dovitinib + Palbociclib; first compound 2 µM)
NCI-H2009 | 0.781 | 0.74 | 0.795 | 0.854 | 0.725 | 0.816 | 0.926 | 0.991 | 0.974 | 1.08 | 1.16 | 1.25 | 1.22 | 1.15 | 1.27 | 0.203 | 0.202 | 0.291 | 0.353 | 0.244
NCI-H2023 | 0.216 | 0.206 | 0.236 | 0.261 | 0.212 | 0.994 | 0.963 | 1.24 | 0.995 | 0.886 | 0.707 | 0.935 | 0.788 | 0.868 | 0.857 | 0.357 | 0.359 | 0.388 | 0.345 | 0.359
NCI-H2085 | 0.553 | 0.465 | 0.443 | 0.502 | 0.451 | 1.05 | 1.1 | 1.03 | 1.21 | 1.06 | 1.01 | 1.16 | 1.01 | 0.961 | 1.01 | 0.481 | 0.476 | 0.477 | 0.415 | 0.493
NCI-H2087 | 1.05 | 0.907 | 0.845 | 0.907 | 0.892 | 0.756 | 1.07 | 0.805 | 0.899 | 0.86 | 1.19 | 1.15 | 1.14 | 1.05 | 1.16 | 0.276 | 0.229 | 0.191 | 0.197 | 0.255
NCI-H2126 | 0.476 | 0.462 | 0.463 | 0.559 | 0.504 | 1.11 | 1.09 | 1.2 | 1.08 | 1.07 | 1.17 |  | 1.3 | 1.14 | 1.15 | 0.363 | 0.357 | 0.354 | 0.339 | 0.327
NCI-H2228 | 0.317 | 0.345 | 0.335 | 0.462 | 0.271 | 0.845 | 0.952 | 0.827 | 0.897 | 0.875 | 0.9 | 0.832 | 0.928 | 1.08 | 0.915 | 0.763 | 0.815 | 0.696 | 0.79 | 0.678
NCI-H2347 | 0.888 | 0.676 | 0.947 | 0.895 | 0.677 | 1.18 | 0.935 | 0.907 | 1.43 | 1.09 | 1.58 | 0.902 | 0.83 | 1.2 | 1.02 | 0.454 | 0.446 | 0.462 | 0.474 | 0.409
NCI-H2405 | 0.431 | 0.372 | 0.458 | 0.456 | 0.408 | 0.871 | 0.972 | 1 | 1.08 | 0.969 | 1.02 | 0.977 | 1.05 | 1.04 | 1.11 | 0.511 | 0.516 | 0.546 | 0.504 | 0.556
